# PubChem BioAssay AID1259407 (Chemical Carcinogenesis Research Information System (CCRIS), 2018)
# Active and inactive are the calls of the source. No rule for the calls is given here.
# Tested on: CCRIS mutagenicity, Ames/micronucleus/aberration tests
# Test: CCRIS mutagenicity studies
# Details: Test System: AMES SALMONELLA TYPHIMURIUM
# [1] = Strain/Indicator: TA98, Metabolic Activation: NONE, Method: PREINCUBATION
# [2] = Strain/Indicator: TA100, Metabolic Activation: NONE, Method: PREINCUBATION
# [3] = Strain/Indicator: TA1535, Metabolic Activation: NONE, Method: PREINCUBATION
# [4] = Strain/Indicator: TA100, Metabolic Activation: NONE, Method: STANDARD PLATE
# [5] = Strain/Indicator: TA100, Metabolic Activation: RAT, LIVER, S-9, AROCLOR 1254, Method: STANDARD PLATE
smiles,measurement,setting,value
OCCOCCO,mutagenic call,"Strain/Indicator: TA97A, Metabolic Activation: NONE",inactive; negative
same,mutagenic call,"Strain/Indicator: TA97A, Metabolic Activation: RAT, LIVER, S-9, AROCLOR 1254",inactive; negative
same,mutagenic call,"Strain/Indicator: TA98, Metabolic Activation: HAMSTER, LIVER, S-9, AROCLOR 1254 (10%), Method: PREINCUBATION",inactive; negative
same,mutagenic call,"Strain/Indicator: TA98, Metabolic Activation: NONE",inactive; negative
same,mutagenic call,[1],inactive; negative
same,mutagenic call,"Strain/Indicator: TA98, Metabolic Activation: RAT, LIVER, S-9, AROCLOR 1254",inactive; negative
same,mutagenic call,"Strain/Indicator: TA98, Metabolic Activation: RAT, LIVER, S-9, AROCLOR 1254 (10%), Method: PREINCUBATION",inactive; negative
same,mutagenic call,"Strain/Indicator: TA100, Metabolic Activation: HAMSTER, LIVER, S-9, AROCLOR 1254 (10%), Method: PREINCUBATION",inactive; negative
same,mutagenic call,"Strain/Indicator: TA100, Metabolic Activation: NONE",inactive; negative
same,mutagenic call,[2],inactive; negative
same,mutagenic call,"Strain/Indicator: TA100, Metabolic Activation: RAT, LIVER, S-9, AROCLOR 1254",inactive; negative
same,mutagenic call,"Strain/Indicator: TA100, Metabolic Activation: RAT, LIVER, S-9, AROCLOR 1254 (10%), Method: PREINCUBATION",inactive; negative
same,mutagenic call,"Strain/Indicator: TA102, Metabolic Activation: NONE",inactive; negative
same,mutagenic call,"Strain/Indicator: TA102, Metabolic Activation: RAT, LIVER, S-9, AROCLOR 1254",inactive; negative
same,mutagenic call,"Strain/Indicator: TA1535, Metabolic Activation: HAMSTER, LIVER, S-9, AROCLOR 1254 (10%), Method: PREINCUBATION",inactive; negative
same,mutagenic call,[3],inactive; negative
same,mutagenic call,"Strain/Indicator: TA1535, Metabolic Activation: RAT, LIVER, S-9, AROCLOR 1254 (10%), Method: PREINCUBATION",inactive; negative
same,mutagenic call,"Strain/Indicator: TA1537, Metabolic Activation: HAMSTER, LIVER, S-9, AROCLOR 1254 (10%), Method: PREINCUBATION",inactive; negative
same,mutagenic call,"Strain/Indicator: TA1537, Metabolic Activation: NONE, Method: PREINCUBATION",inactive; negative
same,mutagenic call,"Strain/Indicator: TA1537, Metabolic Activation: RAT, LIVER, S-9, AROCLOR 1254 (10%), Method: PREINCUBATION",inactive; negative
[N-]=[N+]=NC[C@H]1O[C@H](O)[C@@H](O)[C@@H](O)[C@@H]1O,mutagenic call,"Strain/Indicator: TA98, Metabolic Activation: NONE, Method: STANDARD PLATE",inactive; negative
same,mutagenic call,[4],active; positive
Clc1ncnc2nc[nH]c12,mutagenic call,[4],active; positive
COc1ccc(CC2CO2)cc1OC (centres undefined),mutagenic call,[2],active; positive
same,mutagenic call,[4],active; positive
same,mutagenic call,[3],active; positive
same,mutagenic call,"Strain/Indicator: TA1535, Metabolic Activation: NONE, Method: STANDARD PLATE",active; positive
Cc1c([N+](=O)[O-])c2ccccc2c2ccc3ccccc3c12,mutagenic call,[1],inactive; negative
same,mutagenic call,"Strain/Indicator: TA98, Metabolic Activation: RAT, LIVER, S-9, Method: PREINCUBATION",active; positive
same,mutagenic call,[2],inactive; negative
same,mutagenic call,[4],inactive; negative
same,mutagenic call,[5],active; positive
same,mutagenic call,"Strain/Indicator: TA100, Metabolic Activation: RAT, LIVER, S-9, Method: PREINCUBATION",active; positive
Cc1ccc2ccc3c(ccc4c5cccc(C)c5ccc43)c2c1,mutagenic call,"Strain/Indicator: TA97, Metabolic Activation: RAT, LIVER, S-9, AROCLOR 1254, Method: STANDARD PLATE",inactive; negative
same,mutagenic call,"Strain/Indicator: TA98, Metabolic Activation: RAT, LIVER, S-9, AROCLOR 1254, Method: STANDARD PLATE",inactive; negative
same,mutagenic call,[5],inactive; negative
same,mutagenic call,"Strain/Indicator: TA102, Metabolic Activation: RAT, LIVER, S-9, AROCLOR 1254, Method: STANDARD PLATE",inactive; negative
same,mutagenic call,"Strain/Indicator: TA104, Metabolic Activation: RAT, LIVER, S-9, AROCLOR 1254, Method: STANDARD PLATE",inactive; negative
same,mutagenic call,"Strain/Indicator: TA1537, Metabolic Activation: RAT, LIVER, S-9, AROCLOR 1254, Method: STANDARD PLATE",inactive; negative
